One data set concerns DIO mice. Description: IPGTT in DIO mice. The data set is classed as in vivo, mouse. Particulars: 100 mg/kg group, IP; group terminated. The text has this:
(§1) Six-week-old male C57BL/6J mice were purchased from CLEA (Tokyo, Japan). Fourteen-week-old and fifteen-week-old male DIO mice were purchase from Charles River Japan (Yokohama, Japan). They were used after at least one week acclimation period. C57BL/6J mice were allowed free access to a normal diet (CRF-1, Oriental Yeast, Tokyo, Japan). DIO mice were allowed free access to a high-fat diet with 60 kcal% fat (D12492, Research Diets, New Brunswick, NJ). They were kept under standard 12-h light/dark cycle. Animal experiments were approved by the Institutional Animal Care and Use Committee of Mitsubishi Tanabe Pharma Corporation.
Fifteen-week-old and twenty one-week-old DIO mice were used. The mice were fasted for 3 h and were randomly grouped based on the body weight. Five ml/kg of a solution of vehicle (10% DMF/18% Cremophore) or compounds were administered IP. Thirty min later, 1.0 g/10 ml/kg of glucose solution was administered IP. Blood samples were obtained from the tail vein at -30, 0, 15, 30, 60, and 120 min after glucose challenge. Plasma glucose and insulin were measured.
Statistical analysis was performed using SAS9.1.3 with student’s t-test or Dunnett’s test. All data were expressed as mean ± standard error of mean (SEM). P values of <0.05 were considered to be statistically significant.

Another data set concerns INS-1E cells. Description: Glucose stimulated insulin secretion (GSIS) in INS-1E cells. Particulars: for effect on GSIS: 1, 3 and 10 μM compound, 11.1 mM glucose; for unbound concentration yielding significant increases in GSIS (highest unbound concentration): free fraction calculated for 0.1% BSA. Format: cell-based, rat. As to the method: INS-1E cells obtained from Dr. Wollheim (Univ. Geneva, Switzerland), were grown in Roswell Park Memorial Institute medium (RPMI) 1640 (Life technologies) supplemented with 5% of fetal bovine serum (Thermo Fischer Scientific, Inc. Waltham, MA). At 4 or 5 days before the assay, cells were plated in 24-well plates at 2 × 10^5 cells /well. At the day of the assay, cells were washed twice by Krebs-Ringer bicarbonate (KRB) buffer containing 0.1% BSA (pH7.4) and pre-incubated at 37°C for 30 min. The cells were washed twice again, and the buffer was replaced by KRB buffer containing 0, 1, 3 and 10 μM of compounds and 11.1 mM of glucose. In order to examine whether Zn^2+ has an enhancing effect on the activity of each compound, 20 μM of Zn^2+ was added in the incubation buffer as necessary. After cells were stimulated at 37°C for 1 h, the reaction was terminated by placing on ice. The buffer was collected from each well and precipitated (1000 rpm for 2 min at 25°C) in order to be separated from the cells. For each sample, concentration of insulin was measured using HTRF insulin kit (Cisbio).
The free fraction in the INS-1E assay, containing 0.1% w/w BSA, was calculated by using the equilibrium conditions of a single binding site model as in Eq 3.
The free fraction in mouse plasma corresponds to 1—CP/Ptot.

A short description of data set [1]: Unbound plasma exposure in the IPGTT. Format: in vivo, mouse. The settings on record: 0-30 min after glucose challenge; IP; lean mice. As to the method: Plasma protein binding of test compound was examined by an equilibrium dialysis method. The compound was mixed with blank mouse plasma to a concentration of 10 μM. The plasma sample and PBS were added to a sample chamber and a buffer chamber of an equilibrium dialysis device, respectively. The device was incubated for 4 h at 37°C in a CO2 incubator (oscillation: 180 rpm). After incubation, an aliquot in each chamber was collected. They were mixed with acetonitrile/methanol (50/50, v/v) and were centrifuged. The supernatants were analyzed by LC-MS/MS. Plasma unbound fraction (f) was calculated by Eq 2, f=Cf/Ct (2) where Cf and Ct represent the compound concentration in the buffer and sample chamber, respectively. […]
The unbound plasma concentrations were calculated by correcting the total plasma concentration derived from the LC/MS analysis by the free fraction, f u. The exposure in terms of the area under the unbound concentration-time curve in the interval 30–60 min after drug administration AUCu 30–60min, i.e. the interval 0–30 min after glucose challenge, was calculated using the linear up-log down trapezoidal method in the non compartmental module of Phoenix 6.2 (Pharsight). […] The ratio between C u,av and the EC 50 of the different in vitro potency assays was calculated for each compound and dose administered.

Another data set deals with C57BL/6J mice. Kind of data set: Intraperitoneal glucose tolerance test (IPGTT) in C57BL/6J mice. The data set is classed as in vivo, mouse. The settings on record: 30 and 100 mg/kg IP, 30 min before 1.5 g/kg glucose IP; fasted lean mice.
Source text: as §1
Seven-week-old and eight-week-old C57BL/6J mice were used. Mice were fasted overnight and were randomly grouped. Five ml/kg of a solution of vehicle (10% dimethylformamide (DMF)/18% Cremophore) or compounds were intraperitoneally (IP) administered. Thirty min later, 1.5 g/20 ml/kg of glucose solution was IP administered. […] Plasma glucose was measured using Glucose CII Test Wako Kit (Wako Pure Chemical Industries, Osaka, Japan). Plasma insulin was measured using Ultra Sensitive Mouse Insulin ELISA Kit (Morinaga, Yokohama, Japan).
Statistical analysis was performed using SAS9.1.3 with student’s t-test or Dunnett’s test. All data were expressed as mean ± standard error of mean (SEM). […]

The structures appear in SMILES notation.

In the case of `N#Cc1ccc(OCCn2ccnc2)c(OCCn2ccnc2)c1` [AZ1395, 3,4-bis-(2-imidazol-1-ylethoxy)-benzonitrile], the adverse findings result in the data set with DIO mice is “severe hyperglycemia and associated morbidity/mortality in some animals”.

For the compound `Cc1nc2c(C(=O)O)cnn2c(O)c1Cc1ccc(Cl)cc1` [AZ4237, 6-[(4-chlorophenyl)methyl]-7-hydroxy-5-methyl-pyrazolo[1,5-a]pyrimidine-3-carboxylic acid], the “effect on GSIS” value is “no effects” in the data set with INS-1E cells (absence of Zn^2+) and “dose dependent GSIS increases” with INS-1E cells (presence of 20 μM Zn^2+). The “unbound concentration yielding significant increases in GSIS (highest unbound concentration)” value in the data set on INS-1E cells was 7.2 µM. In addition, the “average in vivo exposure (C u,av), unbound” value in data set [1] was 19 µM. For the same compound, in the data set on C57BL/6J mice, the insulinotropic effect result is “did not elicit insulinotropic effects in vivo”.

Regarding `Cc1nc(-c2nc3c(c(=O)[nH]2)CN(C(=O)c2cccc(Cl)c2F)CC3)cs1` [AZ7914, 6-(3-chloro-2-fluoro-benzoyl)-2-(2-methylthiazol-4-yl)-3,5,7,8-tetrahydropyrido-[4,3-d]pyrimidin-4-one], the results for the “effect on GSIS” value in the data set with INS-1E cells (absence of Zn^2+) and in the data set with INS-1E cells (presence of 20 μM Zn^2+) were “no effects” and “dose dependent GSIS increases”, respectively. The “unbound concentration yielding significant increases in GSIS (highest unbound concentration)” value in the data set with INS-1E cells is 8.4 µM. In addition, the “average in vivo exposure (C u,av), unbound” value in data set [1] turned out to be 29 µM. Further, in the data set with C57BL/6J mice, the insulinotropic effect result is listed as “did not elicit insulinotropic effects in vivo”.
